In assay [1] the test system is Staphylococcus aureus SA-1 (UC-76). As to the kind of experiment: Microbroth dilution MIC testing against S. aureus. The conditions noted are these: S. aureus UC76, CAMHB, 35° C., 16 to 24 hours, read-out: Minimum Inhibitory Concentration S. aureus UC76. It is filed as cell-based. The procedure: (§1) In this example, the in vitro antibacterial activity of selected compounds was determined against S. aureus and H. influenzae. Except for clarifying or modifying statements, MIC testing followed procedures recommended by the NCCLS^1-2 or followed the descriptions cited below.
(§2) Bacterial Cultures At least the following organisms are included in the screen: Staphylococcus aureus SA-1 (UC-76) and H. influenzae HI-3542. Incubations were at 35° C. Stock bacterial cultures were maintained on Tryptic Soy Agar containing 5% Sheep Blood (BD, Becton Dickinson Microbiology Systems, Cockeysville, Md.), anaerobes were maintained on Anaerobic Blood Agar plates—CDC Formulation (BD), and fastidious organisms were maintained on Chocolate Agar II Plates (BD). Specific conditions of handling are listed below.
(§3) Standardized Organism Inocula Frozen stock cultures were used as the initial source of organisms for performing microbroth dilution MIC testing. Stock cultures were passed on their standard growth medium for at least 1 growth cycle (18 24 hours) prior to their use.
(§4) Most bacteria, unless otherwise noted, were prepared directly from agar plates in 10 mL aliquots of the appropriate broth medium. Bacterial cultures were adjusted to the opacity of a 0.5 McFarland Standard (optical density value of 0.28-0.33 on a Perkin-Elmer Lambda EZ150 Spectrophotometer Wellesley, Mass., set at a wavelength of 600 nm).). The adjusted cultures were diluted 400 fold (0.25 mL inoculum+100 mL broth) in growth media to produce a starting suspension of approximately 5×10^5 colony forming units (CFU)/mL. Unless otherwise noted, bacterial strains were tested in cation adjusted Mueller Hinton Broth (CAMHB).
(§5) Test Compound (“Drug”) Preparation Compounds were solubilized in DMSO. Drug stock solutions were prepared on the day of testing. Drugs were weight corrected for assay content where necessary.
(§6) Drug Dilution Tray Preparation Microbroth dilution stock plates were prepared in two dilution series, 64 to 0.06 μg drug/mL and 0.25 to 0.00025 μg drug/mL. For the high concentration series, 200 μL of stock solution (2 mg/mL) was added to duplicate rows of a 96-well microtiter plate. This was used as the first well in the dilution series. Serial two-fold decremental dilutions were made using a BioMek FX robot (Beckman Coulter Inc., Fullerton, Calif.) with 10 of the remaining 11 wells, each of which contained 100 μL of the appropriate solvent/diluent. Row 12 contained solvent/diluent only and served as the control. For tube one of the low concentration series, 200 μL of an 8 μg/mL stock was added to duplicate rows of a 96-well plate. Serial two-fold dilutions were made as described above.
(§7) Daughter plates were spotted (3.2 μL/well) from the stock plates listed above using the BioMek FX robot and were either used immediately or frozen at −70° C. until use.
(§8) Plate Inoculation Aerobic organisms were inoculated (100 μL volumes) into the thawed plates using the BioMek FX robot. The inoculated plates were placed in stacks of no more than 5 and covered with an empty plate. These plates were incubated 16 to 24 hours in ambient atmosphere according to CLSI guidelines^2.
Reading the Test After inoculation and incubation, the degree of bacterial growth was estimated visually with the aid of a Test Reading Mirror (Dynex Technologies 220 16) in a darkened room with a single light shining directly through the top of the microbroth tray. The MIC was the lowest concentration of drug that prevented macroscopically visible growth under the conditions of the test. Testing was performed in duplicate. When the MIC values in duplicate tests varied by 1 well (2 fold), the lower values were reported. If the MICs varied by 2 dilutions, the middle value was reported. Greater than this 4 fold variance called for the test to be repeated, after which a similar determination was applied to all values.

Assay [2] concerns H. influenzae HI-3542. Briefly: Microbroth dilution MIC testing against H. influenzae. It is filed as cell-based. The conditions noted are these: HI3542, H. influenzae 3542, Haemophilus Test Medium, 35° C., 16 to 24 hours, read-out: Minimum Inhibitory Concentration H. influenzae 3542. The procedure: as §1, §2
Haemophilus was maintained on Chocolate Agar II Plates at room temperature in a candle jar providing a 3 5% CO2 atmosphere.
as §3, §4
Haemophilus influenzae strains were grown on Chocolate Agar II Plates and tested in Haemophilus Test Medium (Remel, Lenexa, Kans.).
as §5, §6, §7, §8
Reading the Test After inoculation and incubation, the degree of bacterial growth was estimated visually with the aid of a Test Reading Mirror (Dynex Technologies 220 16) in a darkened room with a single light shining directly through the top of the microbroth tray. The MIC was the lowest concentration of drug that prevented macroscopically visible growth under the conditions of the test. Testing was performed in duplicate. When the MIC values in duplicate tests varied by 1 well (2 fold), the lower values were reported. If the MICs varied by 2 dilutions, the middle value was reported. […]
For orientation: Broth dilution looks for growth in wells or tubes with falling amounts of substance.

≈ marks a conversion by molar mass, not a printed value.

For the compound `C[C@H]1CN2c3cc(F)c(-c4cnccn4)cc3CC3(C(=O)NC(=O)NC3=O)[C@@H]2[C@@H](C)O1` (relative stereo) [Compound 19, rel-(2S,4R,4aR)-9-dluoro-2,4-dimethyl-8-pyrazin-2-yl-1,2,4,4a-tetrahydro-2′H,6H-spiro[1,4-oxazino[4,3-a]quinoline-5,5′-pyrimidine]-2′,4′,6′(1′H,3′H)-trione], the MIC in assay [1] and in assay [2] was 2 µg/mL (≈ 4.7 µM) in each case.

In the case of `COc1nccnc1-c1ccc2c(c1)CC1(C(=O)NC(=O)NC1=O)[C@@H]1[C@@H](C)O[C@@H](C)CN21` (relative stereo) [Compound 21, rel-(2S,4R,4aR)-8-(3-methoxypyrazin-2-yl)-2,4-dimethyl-1,2,4,4a-tetrahydro-2′H,6H-spiro[1,4-oxazino[4,3-a]quinoline-5,5′-pyrimidine]-2′,4′,6′(1′H,3′H)-trione], the MIC came out at 16 µg/mL (≈ 36.6 µM) in assay [1] and 32 µg/mL (≈ 73.2 µM) in assay [2].
